Measurements taken from publication PMC10391610, “Survivin prevents the polycomb repressor complex 2 from methylating histone 3 lysine 27” (iScience, 2023).

Experiments:
survivin = biological target: T1, survivin (Homo sapiens, UniProt O15392); assay: PEPperCHIP peptide microarray, survivin interaction; assay type: binding; settings: 1 μg/mL survivin; for Average FI (%): anti-His tag DyLight680 read-out, percentage of maximum fluorescence intensity units (64193) per peptide; for Average FI (%) / Integrated FI: 15-mer microarray peptides covering the residues; for Integrated FI: in units of the maximum FI per peptide; for survivin interaction / fluorescence on microarray (in words): peptide microarray
T1 construct: transferred to the survivin1-142 construct used in the present study; His8 tag (pHIS8 vector, thrombin-cleavable); made in house; host or cells: E. coli BL21(DE3) star
T1 sequence (O15392 whole entry): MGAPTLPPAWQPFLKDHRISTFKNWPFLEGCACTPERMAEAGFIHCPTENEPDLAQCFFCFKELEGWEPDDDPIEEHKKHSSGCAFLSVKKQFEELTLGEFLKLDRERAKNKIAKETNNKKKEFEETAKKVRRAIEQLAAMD
Description: We were looking for potential direct interactions between survivin and short peptide sequences originating from PRC2 subunits and other proteins involved in histone modifications based on the in vivo results. Therefore, we created a peptide microarray of overlapping peptides obtained from EZH2, EED, SUZ12, and JARID2 to investigate how survivin interacts with the activity of the PRC2 complex. These subunits form the core of PRC2, and the interaction of survivin with the PRC2 molecular scaffold indicates a potentially disruptive role for survivin in PRC2 function. The fluorescence signal generated by labeled survivin is compared in Figure 2 as a function of position along the polypeptide chain of PRC2 subunits. Figure S1 depicts the raw fluorescence images. Moreover, the microarray fluorescence intensities projected on the three-dimensional structure of the PRC2 core complex are shown in Figure 3. The whole dataset is deposited at the Zenodo data base.
The location of survivin on the peptide microarray was clearly correlated with the amino acid content of the peptide at 1 μg/mL survivin concentration. When evaluating how accurate the predictions were, one should keep in mind that the primary and higher-order structures of the peptide were not at all considered in this analysis. Mislabeling peptides is possible for multiple reasons. The smallest fluorescence signal was chosen as the limit of detection and photon-counting errors may cause weak interactions to be undetected at low fluorescence intensities. Moreover, if the fluorescence intensity of experimental duplicates varied by more than 40%, a peptide was classified as non-interacting even if the lack of reproducibility is ambiguous evidence for the lack of interaction. […] Reducing the number of hidden layer perceptrons from 100 (the default value) to 9 had no effect on the classifier’s performance. Even a 15 amino acid peptide segment composition gives a high degree of uniqueness and highly scalable intensity for survivin-peptide interaction. Survivin has a non-globular structure with no deep binding pockets.
A peptide microarray was designed using the protein sequences from: Cdk1 (P06493), KAT2A/GCN5 (Q92830), SPI1/PU1 (P17947), SUZ12 (Q15022), EED (O75530), JADE3 (Q92613), DIABLO/SMAC (Q9NR28), BOREALIN (Q53HL2), INCENP (Q9NQS7), SGOL1 (Q5FBB7), SGOL2 (Q562F6), EZH2 (Q15910), JARID2 (Q92833), Histone H3 (P68431), AURORAKB (Q96GD4), JADE1 (Q6IE81), JTB (O76095), EVI5 (O60447), RAN (P62826), USP9X (Q93008), C-IAP1 (Q13490), STAT3 (P40763), BRUCE/APOLLON (Q9NR09), XPO1 (O14980), CDX2 (Q99626), Msx2 (P35548), RBM15 (Q96T37), PHF21A (Q96BD5), PHF8 (Q9UPP1), DIDO (Q9BTC0), JADE2 (Q9NQC1) and HASPIN (Q8TF76). The Uniprot ID is shown in parenthesis. The protein sequences were divided into 15 amino acid long peptides with a 10 amino acid overlap. To investigate background interactions with the protein-derived peptides that could interfere with the main assays, one of the PEPperCHIP Peptide Microarrays (PEPperPRINT Gmbh) was pre-staining with the secondary 6x His Tag Antibody DyLight680 antibody at a dilution of 1:1000 and with the monoclonal anti-HA (12CA5)-DyLight800 control antibody at a dilution of 1:1000. Subsequent incubation of other peptide microarray copies with survivin at a concentration of 1 μg/ml in incubation buffer was followed by staining with the secondary 6x His Tag Antibody DyLight680 antibody (Rockland Immunochemicals, Pottstown, PA, USA) and the monoclonal anti-HA (12CA5)-DyLight800 control antibody (Rockland Immunochemicals, Pottstown, PA, USA). The read-out was performed by scanning intensities of 7/7 (red/green). As an internal quality control, HA and His tag control peptides were stained simultaneously to confirm assay quality and to facilitate grid alignment for data quantification. The LI-COR Odyssey Imaging System was used for read-out, and the PepSlide Analyzer was used for quantification of spot intensities and peptide annotation. […]

[U-15N]-survivin = biological target: T2, [U-15N]-survivin (Homo sapiens, UniProt O15392); assay: NMR titration of [U-15N]-survivin with PRC2-derived peptides; assay type: binding; settings: for NMR cpc (critical peptide concentration): 300 μM [U-15N]-survivin, 50 mM Tris, 150 mM NaCl, 1 mM DTT, pH 7.5, 298 K, Bayesian logistic fit (Table 3); for <L>: logistic function parameter L; for <L> / <b> / <k>: posterior mean (Table S10); for <b>: logistic function parameter b; for <k>: logistic function parameter k
T2 construct: transferred to the survivin1-142 construct used in the present study; His8 tag (pHIS8 vector, thrombin-cleavable); made in house; host or cells: E. coli BL21(DE3) star, M9 medium with 15NH4Cl
T2 sequence (O15392 whole entry): as above
Description: Uniformly [U] labeled [U-^15N] survivin was produced in H2O-based M9 medium[69] containing ^15NH4Cl as the sole nitrogen and in case of or [U-^15N,^13C] survivin D-(^13C)-glucose was additionally added as the sole carbon source, respectively (Sigma-Aldrich). Expression was induced with 0.5 mM IPTG and continued for 20–22 h at 15°C. Cell harvesting and subsequent purification followed the same protocol as for unlabeled survivin.
NMR measurements were performed on Bruker (Fällanden, Switzerland) AvanceIII 800 MHz spectrometers running Topspin 3.5 or 3.6, respectively, equipped with cryogenically cooled triple resonance probes. All NMR experiments were performed in NMR buffer (50 mM Tris, 150 mM NaCl, 1 mM DTT, pH 7.5) and at 298 K. The sequence-specific backbone assignment of survivin1-117 was taken from previously published assignment,[50] and transferred to the survivin1-142 construct used in the present study. Existing resonance assignments were confirmed, and additional resonances were assigned in a sequence-specific manner by the following experiments: [^1H,^15N]-TROSY HSQC,[70] BEST-TROSY-type HNCA and HNCO experiments.[71]
The peptides were synthetized and purified to 95% by Biomatik. The peptides were titrated into ^15N labelled survivin (0.3 mM). Standard 2D [^15N,^1H]-SOFAST-HMQC[72] experiments were recorded with inter-scan delays of 200 ms and 1025 x 256 complex points for the ^1H and ^15N dimensions, respectively, for the titrations of the different peptides with [U-^15N] survivin.
For the global analysis, the NMR signal strength was quantified by summing the 200 highest values in each 2D NMR spectrum to ensure that all peaks corresponding to the different amino acid residues in survivin are potentially covered. The titration curve was modelled using a Bayesian machine learning approach using the python library pymc3.[66] The logistic function was chosen due to computational convenience. The most important parameter of this function was coined “critical peptide concentration (cpc)” and its logarithm was modelled using a uniform a priori distribution between −10 and 1. p(log10cpc|lower=−10,upper=1)=1/upper−lower
The modelling errors related to the choice of function affect the analysis of different peptides similarly. Therefore, the relative magnitude of cpc in comparison is more reliable than the absolute magnitude of cpc itself. The concentration values were converted to dimensionless quantities by dividing with 1 mM and the NMR signal intensity was normalized for the concentration range studied.
A deterministic sigmoid (logistic) function was used to model signal decay as a function of peptide concentration. Additional a priori assumptions of the function parameters were the following: p(k|lower=−10,upper=10)=1/upper−lower p(L|lower=−3,upper=3)=1/upper−lower p(b|lower=−10,upper=10)=1/upper−lower
1000 posterior samples were collected in four parallel chains using the No-U-Turn sampling algorithm (NUTS) after 2000 tuning steps/chain.[83] The default sampling parameters were used except for “target accept” parameter, which was increased to 0.95. For the final analysis the 1000 samples from the four chains were merged to yield 4000 samples.

Sequence	Average FI (%) (survivin)	Integrated FI (survivin)	survivin interaction / fluorescence on microarray (in words) (survivin)	NMR cpc (critical peptide concentration) ([U-15N]-survivin) [µM]	<L> ([U-15N]-survivin)	<b> ([U-15N]-survivin)	<k> ([U-15N]-survivin)
SQGEIRLLQSYVDADADENFYTCAW [EED128-152, PRC2-derived peptide, EED residues 128–152, synthesized by Biomatik]	10	0.31	high survivin-associated fluorescence intensity	0.0076	-0.00	0.51	-0.01
PNSMVYFGSSQDEEEVEEEDDETED [JARID2_170-194, PRC2-derived peptide, JARID2 residues 170–194, synthesized by Biomatik]	100	3.00	high survivin-associated fluorescence intensity	0.0085	-0.53	0.79	1.25
PLRPQEMEVDSEDEKDPEWLREKTI [SUZ12_573-597, PRC2-derived peptide, SUZ12 residues 573–597, synthesized by Biomatik]	20	0.6	high survivin-associated fluorescence intensity	0.0066	-0.59	0.87	0.99
